Counter-ions that a name gives are not always drawn.
What follows are compounds tested against human complement factor B (CVF-Bb complex) (Homo sapiens (Human), UniProt P00751) (assay: Human Complement Factor B ELISA Assay). Settings: not given.
Type: biochemical
Procedure: Human Complement Factor B ELISA Assay
CVF-Bb complex prepared from purified cobra venom factor (1 μM), recombinant human complement factor B (expressed in drosophila cells and purified using standard methods) and human complement factor D (expressed in E. Coli, refolded and purified using standard methods). CVF-Bb complex at 3 nM concentration was incubated with test compound at various concentrations for 1 hour at room temperature in PBS pH 7.4 containing 10 mM MgCl2 and 0.05% (w/v) CHAPS. Human complement C3 substrate purified from plasma was added to a final concentration of 1 μM. After 1 hour incubation at room temperature, the enzyme reaction was stopped by addition of a cocktail of concentrated pan-protease inhibitors. The product of the reaction, C3a, was quantified by means of an enzyme-linked-immunosorbent assay. IC50 values were calculated from percentage of inhibition of CVF-Bb activity as a function of test compound concentration.

Question: How did the IC50 turn out when `COc1cc2c(N)nc(N3CCN(C(=O)C[C@@H](N)c4ccc(C(F)(F)F)cc4)CC3)nc2c(F)c1OC` [Example 55, (R)-3-Amino-1-[4-(4-amino-8-fluoro-6,7-dimethoxy-quinazolin-2-yl)piperazin-1-yl]-3-(4-trifluoromethyl-phenyl)-propan-1-one hydrochloride] was run?
Answer: The IC50 was 160 nM.

Question: For `COc1cc2c(N)nc(N3CCN(C(=O)C[C@@H](N)CC(C)C)C[C@@H]3C)nc2c(F)c1OC` [Example 56, (S)-3-Amino-1-[(S)-4-(4-amino-8-fluoro-6,7-dimethoxy-quinazolin-2-yl)-3-methyl-piperazin-1-yl]-5-methyl-hexan-1-one hydrochloride], which IC50 is on record?
Answer: Its IC50 is 240 nM.

Question: For `COc1cc2c(N)nc(N3CCN(C(=O)C[C@@H](N)c4ccccc4)C[C@@H]3C)nc2c(F)c1OC` [Example 57, (R)-3-Amino-1-[(S)-4-(4-amino-8-fluoro-6,7-dimethoxy-quinazolin-2-yl)-3-methyl-piperazin-1-yl]-3-phenyl-propan-1-one hydrochloride], which IC50 is on record?
Answer: The IC50 was 210 nM.

Question: With `COc1cc2c(N)nc(N3CCN(C(=O)C[C@@H](N)c4ccc(C#N)cc4)C[C@@H]3C)nc2c(F)c1OC` [Example 58, 4-{(R)-1-Amino-3-[(S)-4-(4-amino-8-fluoro-6,7-dimethoxy-quinazolin-2-yl)-3-methyl-piperazin-1-yl]-3-oxo-propyl}-benzonitrile hydrochloride] as the compound, how does the IC50 read?
Answer: The IC50 was 9 nM.

Question: Which IC50 does the source give for `COc1cc2c(N)nc(N3CCN(C(=O)C[C@@H](N)c4ccccc4F)C[C@@H]3C)nc2c(F)c1OC` [Example 59, (R)-3-Amino-1-[(S)-4-(4-amino-8-fluoro-6,7-dimethoxy-quinazolin-2-yl)-3-methyl-piperazin-1-yl]-3-(2-fluoro-phenyl)-propan-1-one hydrochloride] here?
Answer: Its IC50 is 160 nM.

Question: For `COc1cc2c(N)nc(N3CCN(C(=O)C[C@@H](N)c4ccc(F)cc4)C[C@@H]3C)nc2c(F)c1OC` [Example 60, (R)-3-Amino-1-[(S)-4-(4-amino-8-fluoro-6,7-dimethoxy-quinazolin-2-yl)-3-methyl-piperazin-1-yl]-3-(4-fluoro-phenyl)-propan-1-one hydrochloride], which IC50 is on record?
Answer: The IC50 was 20 nM.

Question: Which IC50 does the source give for `COc1cc2c(N)nc(N3CCN(C(=O)C[C@@H](N)c4ccc(C(F)(F)F)cc4)C[C@@H]3C)nc2c(F)c1OC` [Example 61, (R)-3-Amino-1-[(S)-4-(4-amino-8-fluoro-6,7-dimethoxy-quinazolin-2-yl)-3-methyl-piperazin-1-yl]-3-(4-trifluoromethyl-phenyl)-propan-1-one hydrochloride] here?
Answer: The IC50 was 40 nM.

Question: Which IC50 does the source give for `COc1cc2c(N)nc(N3CCN(C(=O)C[C@@H](N)Cc4ccccc4)C[C@@H]3C)nc2c(F)c1OC` [Example 62, (S)-3-Amino-1-[(S)-4-(4-amino-8-fluoro-6,7-dimethoxy-quinazolin-2-yl)-3-methyl-piperazin-1-yl]-4-phenyl-butan-1-one hydrochloride] here?
Answer: The IC50 was 2250 nM.

Question: Which IC50 does the source give for `COc1cc2c(N)nc(N3CCN(C(=O)C[C@@H](N)Cc4ccncc4)C[C@@H]3C)nc2c(F)c1OC` [Example 63, (S)-3-Amino-1-[(S)-4-(4-amino-8-fluoro-6,7-dimethoxy-quinazolin-2-yl)-3-methyl-piperazin-1-yl]-4-pyridin-4-yl-butan-1-one hydrochloride] here?
Answer: The IC50 was 7320 nM.

Question: `CC[C@H]1CN(C(=O)C[C@@H](N)c2ccc(C#N)cc2)CCN1c1nc(N)c2cc(OC)c(OC)c(F)c2n1` [Example 64, 4-{(R)-1-Amino-3-[(S)-4-(4-amino-8-fluoro-6,7-dimethoxy-quinazolin-2-yl)-3-ethyl-piperazin-1-yl]-3-oxo-propyl}-benzonitrile hydrochloride] was tested. Which IC50 did it give?
Answer: The IC50 was 7 nM.

Question: For `CC[C@H]1CN(C(=O)C[C@@H](N)c2ccc(F)cc2)CCN1c1nc(N)c2cc(OC)c(OC)c(F)c2n1` [Example 65, (R)-3-Amino-1-[(S)-4-(4-amino-8-fluoro-6,7-dimethoxy-quinazolin-2-yl)-3-ethyl-piperazin-1-yl]-3-(4-fluoro-phenyl)-propan-1-one hydrochloride], which IC50 is on record?
Answer: The IC50 was 30 nM.

Question: For `CC[C@H]1CN(C(=O)C[C@@H](N)c2ccc(C(F)(F)F)cc2)CCN1c1nc(N)c2cc(OC)c(OC)c(F)c2n1` [Example 66, (R)-3-Amino-1-[(S)-4-(4-amino-8-fluoro-6,7-dimethoxy-quinazolin-2-yl)-3-ethyl-piperazin-1-yl]-3-(4-trifluoromethyl-phenyl)-propan-1-one hydrochloride], which IC50 is on record?
Answer: Its IC50 is 90 nM.

Question: How did the IC50 turn out when `CCC[C@H]1CN(C(=O)C[C@@H](N)c2ccc(C#N)cc2)CCN1c1nc(N)c2cc(OC)c(OC)c(F)c2n1` [Example 67, 4-{(R)-1-Amino-3-[(S)-4-(4-amino-8-fluoro-6,7-dimethoxy-quinazolin-2-yl)-3-propyl-piperazin-1-yl]-3-oxo-propyl}-benzonitrile hydrochloride] was run?
Answer: The IC50 was 10 nM.

Question: Which IC50 does the source give for `CCC[C@H]1CN(C(=O)C[C@@H](N)c2ccc(C(F)(F)F)cc2)CCN1c1nc(N)c2cc(OC)c(OC)c(F)c2n1` [Example 68, (R)-3-Amino-1-[(S)-4-(4-amino-8-fluoro-6,7-dimethoxy-quinazolin-2-yl)-3-propyl-piperazin-1-yl]-3-(4-trifluoromethyl-phenyl)-propan-1-one hydrochloride] here?
Answer: The IC50 was 60 nM.

Question: For `COc1cc2c(N)nc(N3CCN(C(=O)C[C@@H](N)c4ccc(F)cc4)C[C@@H]3c3ccccc3)nc2c(F)c1OC` [Example 69, (R)-3-Amino-1-[(S)-4-(4-amino-8-fluoro-6,7-dimethoxy-quinazolin-2-yl)-3-phenyl-piperazin-1-yl]-3-(4-fluoro-phenyl)-propan-1-one hydrochloride], which IC50 is on record?
Answer: The IC50 was 7 nM.

Same assay, conditions: CVF-Bb complex 3 nM, 1 hour preincubation with compound at room temperature, human C3 substrate 1 μM, C3a quantified by ELISA; read-out: Factor B IC50

Question: Which IC50 does the source give for `COCCOc1c(OC)cc2c(N)nc(N3CCN(C(=O)C[C@@H](N)c4ccc(C#N)cc4)CC3)nc2c1F` [Example 70, 4-((R)-1-Amino-3-{4-[4-amino-8-fluoro-6-methoxy-7-(2-methoxy-ethoxy)-quinazolin-2-yl]-piperazin-1-yl}-3-oxo-propyl)benzonitrile] here?
Answer: Its IC50 is 110 nM.

Question: With `COCCOc1c(OC)cc2c(N)nc(N3CCN(C(=O)C[C@@H](N)c4ccc(C#N)cc4)C[C@@H]3C)nc2c1F` [Example 71] as the compound, how does the IC50 read?
Answer: Its IC50 is 70 nM.

Question: Which IC50 does the source give for `CN[C@H](CC(=O)N1CCN(c2nc(N)c3cc(OC)c(OC)c(F)c3n2)CC1)c1ccccc1` [Example 72, (R)-1-[4-(4-Amino-8-fluoro-6,7-dimethoxy-quinazolin-2-yl)-piperazin-1-yl]-3-methylamino-3-phenyl-propan-1-one] here?
Answer: Its IC50 is 230 nM.

Question: With `COc1cc2c(N)nc(N3C[C@@H](C)N(C(=O)C[C@@H](N)c4ccccc4)C[C@@H]3C)nc2c(F)c1OC` [Example 73, (R)-3-Amino-1-[(2R,5S)-4-(4-amino-8-fluoro-6,7-dimethoxy-quinazolin-2-yl)-2,5-dimethyl-piperazin-1-yl]-3-phenyl-propan-1-one] as the compound, how does the IC50 read?
Answer: Its IC50 is 60 nM.

Question: For `COc1cc2c(N)nc(N3C[C@@H](C)N(C(=O)C[C@@H](N)c4ccc(F)cc4)C[C@@H]3C)nc2c(F)c1OC` [Example 74, (R)-3-amino-1-[(2R,5S)-4-(4-amino-8-fluoro-6,7-dimethoxy-quinazolin-2-yl)-2,5-dimethyl-piperazin-1-yl]-3-(4-fluorophenyl)-propan-1-one], which IC50 is on record?
Answer: Its IC50 is 50 nM.

Question: How did the IC50 turn out when `COc1cc2c(N)nc(N3CCN(C(=O)C[C@@H](N)c4ccccc4)CC3)nc2c(C#N)c1OC` [Example 75, 4-Amino-2-[4-((R)-3-amino-3-phenyl-propionyl)-piperazin-1-yl]-6,7-dimethoxy-quinazoline-8-carbonitrile] was run?
Answer: Its IC50 is 760 nM.

Reference: patent publication US9452990B2, “Complement pathway modulators and uses thereof” (NOVARTIS AG, priority 2012, dated 2016)
